Data from patent US11873298B2, “Compounds and uses thereof” (JANSSEN PHARMACEUTICA NV, priority 2017, dated 2024).

What was measured:
SCD5 = target: T1, SCD5 (Homo sapiens, UniProt Q86SK9); assay: Growth inhibition of humanized yeast strain expressing SCD5 as sole desaturase; type: cell-based
T1 construct: host or cells: S. cerevisiae ole1Δ strain (W303 pdr1Δ pdr3Δ background), plasmid pRS316 with TDH3 promoter and CYC1 terminator
T1 sequence (Q86SK9 1-330): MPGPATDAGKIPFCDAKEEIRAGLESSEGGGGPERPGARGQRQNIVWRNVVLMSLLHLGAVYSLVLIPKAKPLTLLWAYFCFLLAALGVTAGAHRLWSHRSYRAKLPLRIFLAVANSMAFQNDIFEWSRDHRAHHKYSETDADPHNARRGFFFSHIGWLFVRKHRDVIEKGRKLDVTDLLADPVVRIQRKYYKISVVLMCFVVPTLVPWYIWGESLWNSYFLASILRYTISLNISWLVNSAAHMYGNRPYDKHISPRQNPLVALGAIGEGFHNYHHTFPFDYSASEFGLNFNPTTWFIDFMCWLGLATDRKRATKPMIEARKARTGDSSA
In short: (§1)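 Yeast ole1Δ strain (W303 pdr1Δ pdr3Δ background) carrying plasmid-borne Ole1, SCD1 or SCD5 as sole desaturase was grown in uracil-lacking media, pre-cultured in raffinose for 6 h, then seeded in galactose medium with compound in DMSO. Growth was read as OD600 after 30° C. incubation: 24 h for Ole1, 40 h for SCD1/SCD5.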

SCD1 = target: T2, SCD1 (Homo sapiens, UniProt O00767); assay: Growth inhibition of humanized yeast strain expressing SCD1 as sole desaturase; type: cell-based
T2 construct: host or cells: S. cerevisiae ole1Δ strain (W303 pdr1Δ pdr3Δ background), plasmid pRS316 with TDH3 promoter and CYC1 terminator
T2 sequence (O00767 1-359): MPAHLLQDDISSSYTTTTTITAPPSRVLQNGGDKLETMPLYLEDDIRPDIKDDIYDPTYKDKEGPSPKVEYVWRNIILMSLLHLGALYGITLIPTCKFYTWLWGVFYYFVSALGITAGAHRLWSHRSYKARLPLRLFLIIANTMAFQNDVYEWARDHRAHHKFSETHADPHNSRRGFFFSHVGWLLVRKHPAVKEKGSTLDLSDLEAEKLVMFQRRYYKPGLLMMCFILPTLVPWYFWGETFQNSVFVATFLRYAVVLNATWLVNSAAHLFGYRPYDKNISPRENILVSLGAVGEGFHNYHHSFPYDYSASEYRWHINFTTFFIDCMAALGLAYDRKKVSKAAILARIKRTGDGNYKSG
In short: as §1

[1] = growth inhibition of humanized yeast strain expressing human SCD5
[2] = growth inhibition of humanized yeast strain expressing human SCD1
[3] = humanized yeast strain expressing SCD5
[4] = humanized yeast strain expressing SCD1

Structure (SMILES) | IC50 (SCD5; humanized yeast strain, 40 h) | IC50 (SCD1; humanized yeast strain, 40 h) | also measured
CC(C)C(=O)N1CCC(c2noc(-c3cccc(N4CCOCC4)c3F)n2)CC1 [Compound 1160] | > 45 µM | > 45 µM | 
CC(C)n1ncc2ccc(-c3noc(C4CCN(Cc5ncco5)CC4)n3)cc21 [Compound 615] |  |  | IC50 (SCD5; [1]): 1.88 µM; IC50 (SCD1; [2]): 0.848 µM
O=C(CC1CC1)N1CCN(c2noc(-c3ccc4cnn(C5COC5)c4c3)n2)CC1 [Compound 839] | 0.035 µM | > 45 µM | 
COC(=O)N1CCN(c2nc(-c3ccc4cnn(C5COC5)c4c3)no2)CC1 [Compound 636] |  |  | IC50 (SCD5; [1]): 1.8 µM; IC50 (SCD1; [2]): > 45 µM
CC(C)(C)OC(=O)N1CCN(c2noc(-c3ccc4cnn(C5CS(=O)(=O)C5)c4c3)n2)CC1 [Compound 997] | 0.022 µM | > 45 µM | 
O=C(C1CCC1)N1CCC(c2noc(-c3ccc4oc(=O)n(C5COC5)c4c3)n2)CC1 [Compound 1127] | 1.47 µM | > 45 µM | 
COC(=O)N1CCN(c2noc(-c3ccc4cnn(C(C)C)c4c3)n2)CC1 [Compound 630] |  |  | IC50 (SCD5; [1]): 0.014 µM; IC50 (SCD1; [2]): 10.2 µM
COC(=O)N1CCC(c2noc(-c3ccc4cnn(C(CO)CO)c4c3)n2)CC1 [Compound 834] | > 45 µM | > 45 µM | 
COC1(c2nc(-c3ccc4cnn(C(C)C)c4c3)no2)CCN(C(=O)OC(C)(C)C)CC1 [Compound 836] | 1.44 µM | > 45 µM | 
CC(C)(C)OC(=O)N1CCN(c2noc(-c3cccc(C4CCOC4)c3)n2)CC1 (centres unmarked) [Compound 778] | 0.012 µM | > 45 µM | 
O=C(C1CC1)N1CCN(c2noc(-c3ccnc(Cl)c3)n2)CC1 [Compound 1118] | > 45 µM | > 45 µM | 
CC(C)(C)OC(=O)N1CCC(c2nc(-c3ccnc(Cl)c3)no2)CC1 [Compound 747] | 26.8 µM | > 45 µM | 
O=C(N1CC(c2noc(-c3ccc4cnn(C5COC5)c4c3)n2)C1)C(F)(F)F [Compound 954] | 2.86 µM | > 45 µM | 
CC(C)C(=O)N1CCC(c2noc(N3CCc4c(cnn4C4COC4)C3)n2)CC1 [Compound 1194] | > 45 µM | > 45 µM | 
CC(C)n1ncc2ccc(-c3noc(C4CCN(C(=O)C56CC(C(F)(F)F)(C5)C6)CC4)n3)cc21 [Compound 757] | 4.95 µM | > 45 µM | 
O=C(OC1CC1)N1CCC(c2nc(-c3ccc4cnn(C5COC5)c4c3)no2)CC1 [Compound 618] |  |  | IC50 (SCD5; [1]): 0.101 µM; IC50 (SCD1; [2]): > 45 µM
O=C(N1CCN(c2noc(-c3ccc4cnn(C5COC5)c4c3)n2)CC(F)(F)C1)C1(F)CC1 [Compound 1057] | 0.023 µM | > 45 µM | 
CC(C)n1nc(CO)c2ccc(-c3noc(C4CCN(C(=O)OC(C)(C)C)CC4)n3)cc21 [Compound 781] | 4.8 µM | > 45 µM | 
O=C(c1sccc1Cl)N1CCC(c2noc(-c3ccc4cnn(C5COC5)c4c3)n2)CC1 [Compound 698] |  |  | IC50 (SCD5; [1]): 0.026 µM; IC50 (SCD1; [2]): > 45 µM
CN(c1cc(-c2nc(C3CCN(C(=O)OC4(C)CC4)CC3)no2)ccn1)C1COC1 [Compound 1158] | 3.5 µM | > 45 µM | 
CC(C)C(=O)N1CCC(c2noc(-c3cccc(C4CCOC4)n3)n2)CC1 (centres unmarked) [Compound 1188] | > 45 µM | > 45 µM | 
CC(C)n1ncc2ccc(-c3nc(C4CCN(C(=O)c5ncccc5Cl)CC4)no3)cc21 [Compound 692] |  |  | IC50 (SCD5; [1]): 0.492 µM; IC50 (SCD1; [2]): > 45 µM
CC(=O)NCCc1nn(C(C)C)c2cc(-c3noc(C4CCN(C(=O)OC(C)(C)C)CC4)n3)ccc12 [Compound 760] | > 45 µM | > 45 µM | 
CC(C)n1ncc2ccc(-c3nc(C4CCN(C(=O)CC(C)(C)C)C4)no3)cc21 (centres unmarked) [Compound 542] |  |  | IC50 (SCD5; [3]): 7.33 µM; IC50 (SCD1; [4]): > 45 µM
COC(=O)N1CCC(c2nc(-c3ccnc(Cl)c3)no2)CC1 [Compound 734] |  |  | IC50 (SCD5; [1]): > 45 µM; IC50 (SCD1; [2]): > 45 µM

Structure (SMILES) | IC50 (SCD5; humanized yeast strain, 40 h) | IC50 (SCD1; humanized yeast strain, 40 h) | also measured
CC(C)(C)OC(=O)N1CCC(c2noc(-c3ccc4cnn(C5COC5)c4c3F)n2)CC1 [Compound 988] | 0.024 µM | > 45 µM | 
CC(C)(C)OC(=O)N1CCC(c2nc(-c3ccc4cnc(C5COC5)n4c3)no2)CC1 [Compound 811] | 0.679 µM | > 45 µM | 
O=C(c1ncccc1F)N1CCC(c2noc(-c3ccc4cnn(C5COC5)c4c3)n2)CC1 [Compound 881] | 0.01 µM | > 45 µM | 
Cc1noc(N2CCN(c3nc(-c4ccc5cnn(C(C)C)c5c4)no3)CC2)n1 [Compound 657] |  |  | IC50 (SCD5; [1]): 9.11 µM; IC50 (SCD1; [2]): > 45 µM
CC(C)(C)OC(=O)N1CCC(c2nc(-c3ccc4cncn4c3)no2)CC1 [Compound 825] | 9.49 µM | > 45 µM | 
Clc1cnc2n1CCN(c1noc(-c3ccc4cnn(C5COC5)c4c3)n1)C2 [Compound 896] | 0.01 µM | > 45 µM | 
CNC(=O)Cn1cc2ccc(-c3noc(C4CCN(C(=O)OC(C)(C)C)CC4)n3)cc2n1 [Compound 678] |  |  | IC50 (SCD5; [1]): 3.87 µM; IC50 (SCD1; [2]): > 45 µM
CC(C)n1ncc2ccc(-c3noc(C4(O)CCN(C(=O)OC(C)(C)C)CC4)n3)cc21 [Compound 832] | 11.6 µM | > 45 µM | 
CC1(OC(=O)N2CCN(c3noc(-c4ccc5cnn(C6COC6)c5c4)n3)CC2)CC1 [Compound 735] |  |  | IC50 (SCD5; [1]): 0.01 µM; IC50 (SCD1; [2]): 3.99 µM
CC1(OC(=O)N2CCC(c3noc(-c4ccc5cnn(C6CS(=O)(=O)C6)c5c4)n3)CC2)CC1 [Compound 1060] | 0.184 µM | > 45 µM | 
COC(=O)N1CCC(c2noc(-c3cc(F)c4cnn(C5COC5)c4c3)n2)CC1 [Compound 875] | 0.02 µM | > 45 µM | 
CC(C)(C)OC(=O)N1CCC(c2noc(-c3ccc4cnn(C5COC5)c4c3)n2)CC1 [Compound 750] | 0.01 µM | 3.25 µM | 
CC1(OC(=O)N2CCC(c3noc(-c4ccnc([C@H]5CCOC5)c4)n3)CC2)CC1 [Compound 1136] | 0.01 µM | > 45 µM | 
O=C(CC1CC1)N1CCC(c2noc(-c3ccc4cnn(C5CCOC5)c4c3)n2)CC1 (centres unmarked) [Compound 974] | 0.01 µM | > 45 µM | 
COC(=O)N1CCN(c2noc(-c3ccc4cnn(C5CS(=O)(=O)C5)c4c3)n2)CC1 [Compound 998] | 4.13 µM | > 45 µM | 
Cn1ncc2ccc(-c3noc(C4CCNCC4)n3)cc21 [Compound 500] |  |  | IC50 (SCD5; [3]): > 45 µM; IC50 (SCD1; [4]): > 45 µM
CC(C)(C)OC(=O)N1CCC(c2nc(-c3ccn4cnc(I)c4c3)no2)CC1 [Compound 858] | 0.262 µM | > 45 µM | 
CC(C)N1C(=O)Cc2ccc(-c3noc(C4CCN(C(=O)OC5(C)CC5)CC4)n3)cc21 [Compound 610] |  |  | IC50 (SCD5; [1]): 2.16 µM; IC50 (SCD1; [2]): > 45 µM
O=C(N1CCN(c2noc(-c3ccc4cnn(C5COC5)c4c3)n2)CC1)C12CC(C1)C2 [Compound 843] | 0.033 µM | > 45 µM | 
CC(C)(C)OC(=O)N1CCC(c2noc(N3CCc4nn(C5COC5)cc4C3)n2)CC1 [Compound 1172] | 9.89 µM | ≥ 45 µM | 
O=C(c1ccccc1Cl)N1CCC(c2noc(-c3ccc4cnn(C5COC5)c4c3)n2)CC1 [Compound 697] |  |  | IC50 (SCD5; [1]): 0.059 µM; IC50 (SCD1; [2]): > 45 µM
COC(=O)N1CCC(c2nc(-c3ccnc(NC(C)C)c3)no2)CC1 [Compound 815] | > 45 µM | > 45 µM | 
CC(C)(C)OC(=O)N1CCC(c2nc(-c3ccc4cnc(Br)n4c3)no2)CC1 [Compound 865] | 0.01 µM | > 45 µM | 
CC(C)(C)OC(=O)N1CCC(c2noc(-c3ccc(OC4COC4)c(NC4COC4)c3)n2)CC1 [Compound 1006] | 0.637 µM | > 45 µM | 
